Literature values in US20250275953A1, “VODOBATINIB FOR REDUCING PROGRESSION OF PARKINSON'S DISEASE” (Sun Pharma Advanced Research Company Ltd., priority 2022, published 2025).

Conditions: nilotinib 150 and 300 mg; cited from earlier work

Structure (SMILES): Cc1cn(-c2cc(NC(=O)c3ccc(C)c(Nc4nccc(-c5cccnc5)n4)c3)cc(C(F)(F)F)c2)cn1 [Nilotinib, nilotinib]
- efficacy in Parkinson's disease patients: not efficacious
